Results on 51 compounds are retold here after US9200008B2 (ASKA PHARMACEUTICAL CO., LTD., priority 2010, dated 2015).

Each structure is given as a SMILES string.

For the assay, the system named is Human prostate cancer cell lines (PC-3 cells). Description: Measurement of cell death-inducing activity (Test Example 1). It counts as cell-based. As to conditions: PC-3, 48 h, 48 hours after addition, tested at 10, 1, 0.1, 0.025 and 0.00625 μmol/L, qualitative evaluation of 10 fields, read-out: Concentration showing the cell death-inducing activity (cell death-inducing rate not less than 40%). On the procedure: The cell death-inducing activity of the compound represented by the formula (1) or the salt thereof was measured as follows.
Human prostate cancer cell lines (PC-3 cells) were seeded to 6-well plates at 1×10^5 cells/2 mL/well, and cultured in the presence of 5% CO2 at 37° C. for 48 hours. Thereafter, each compound was added thereto so as to provide 10, 1, 0.1, 0.025 and 0.00625 μmol/L. As a control, DMSO was added. After the addition, the cells were continuously cultured for 48 hours. […] When the cell death-inducing rate was not less than 40%, the compound was judged to have the cell death-inducing activity.
In the case of `COc1ccccc1-c1nc(C)c(NC(=O)OCc2ccc(SC)cc2)s1` [Example 9-5], the minimal effective concentration was 10 µM. For `COc1cc(Cl)ccc1-c1nc(C)c(NC(=O)OCc2ccc3c(c2)CCO3)s1` [Example 9-7] the value was 10 µM; for `Cc1ccc(-c2nc(C)c(NC(=O)OCc3ccc4c(c3)CCO4)s2)c(C)c1` [Example 9-8], 10 µM. For `COc1cc(Cl)ccc1-c1nc(C)c(NC(=O)OCc2cccc(N(C)C)c2)s1` [Example 9-11] the value was 10 µM; for `Cc1ccccc1-c1nc(C)c(NC(=O)OCc2ccc3c(c2)nnn3C)s1` [Example 9-12], 1 µM; for `COc1ccccc1-c1nc(C)c(NC(=O)OCc2ccc3c(c2)nnn3C)s1` [Example 9-13], 0.025 µM. For `COc1cc(F)ccc1-c1nc(C)c(NC(=O)OCc2ccc3c(c2)nnn3C)s1` [Example 9-14] the value was 0.025 µM; for `COc1cc(Cl)ccc1-c1nc(C)c(NC(=O)OCc2ccc3c(c2)nnn3C)s1` [Example 9-15], 0.00625 µM; for `COc1cc(C)ccc1-c1nc(C)c(NC(=O)OCc2ccc3c(c2)nnn3C)s1` [Example 9-16], 0.00625 µM. Take `Cc1ccc(-c2nc(C)c(NC(=O)OCc3ccc4c(c3)nnn4C)s2)c(C)c1` [Example 9-17]: the minimal effective concentration is 0.025 µM. For `Cc1nc(-c2ccc(F)cc2Cl)sc1NC(=O)OCc1ccc2c(c1)nnn2C` [Example 9-18] the value was 0.1 µM; for `Cc1cc(F)ccc1-c1nc(C)c(NC(=O)OCc2ccc3c(c2)nnn3C)s1` [Example 9-19], 0.025 µM; for `Cc1cc(Cl)ccc1-c1nc(C)c(NC(=O)OCc2ccc3c(c2)nnn3C)s1` [Example 9-20], 0.025 µM. For `Cc1nc(-c2cccc3c2OCC3)sc1NC(=O)OCc1ccc2c(c1)nnn2C` [Example 9-21] the value was 10 µM. With `CCn1nnc2cc(COC(=O)Nc3sc(-c4ccccc4OC)nc3C)ccc21` [Example 9-22], the minimal effective concentration came to 0.025 µM.

In the case of `CCn1nnc2cc(COC(=O)Nc3sc(-c4ccc(F)cc4OC)nc3C)ccc21` [Example 9-23], the minimal effective concentration was determined as 0.025 µM. For `CCn1nnc2cc(COC(=O)Nc3sc(-c4ccc(Cl)cc4OC)nc3C)ccc21` [Example 9-24] the value was 0.00625 µM; for `CCn1nnc2cc(COC(=O)Nc3sc(-c4ccc(C)cc4C)nc3C)ccc21` [Example 9-26], 0.025 µM; for `CCn1nnc2cc(COC(=O)Nc3sc(-c4ccc(F)cc4C)nc3C)ccc21` [Example 9-27], 0.025 µM. For `CCn1nnc2cc(COC(=O)Nc3sc(-c4ccc(Cl)cc4C)nc3C)ccc21` [Example 9-28] the value was 0.025 µM; for `COc1ccccc1-c1nc(C)c(NC(=O)OCc2ccc3c(ccn3C)c2)s1` [Example 9-29], 10 µM; for `COc1cc(Cl)ccc1-c1nc(C)c(NC(=O)OCc2ccc3c(ccn3C)c2)s1` [Example 9-30], 1 µM. For `Cc1cc(Cl)ccc1-c1nc(C)c(NC(=O)OCc2ccc3c(ccn3C)c2)s1` [Example 9-31] the value was 1 µM; for `Cc1nc(-c2ccccc2)sc1NC(=O)OCc1ccc2c(c1)ncn2C` [Example 9-32], 1 µM.

For `Cc1ccccc1-c1nc(C)c(NC(=O)OCc2ccc3c(c2)ncn3C)s1` [Example 9-33], the minimal effective concentration stood at 0.025 µM. For `Cc1ccc(-c2nc(C)c(NC(=O)OCc3ccc4c(c3)ncn4C)s2)cc1` [Example 9-35], the minimal effective concentration came to 0.1 µM. For `CCc1ccccc1-c1nc(C)c(NC(=O)OCc2ccc3c(c2)ncn3C)s1` [Example 9-36] the value was 0.025 µM; for `COc1ccccc1-c1nc(C)c(NC(=O)OCc2ccc3c(c2)ncn3C)s1` [Example 9-37], 0.025 µM. For `COc1cc(F)ccc1-c1nc(C)c(NC(=O)OCc2ccc3c(c2)ncn3C)s1` [Example 9-38] the value was 0.00625 µM. For `COc1cc(Cl)ccc1-c1nc(C)c(NC(=O)OCc2ccc3c(c2)ncn3C)s1` [Example 9-39] the value was 0.00625 µM; for `COc1cc(C)ccc1-c1nc(C)c(NC(=O)OCc2ccc3c(c2)ncn3C)s1` [Example 9-40], 0.00625 µM. For `COc1ccc(-c2nc(C)c(NC(=O)OCc3ccc4c(c3)ncn4C)s2)c(OC)c1` [Example 9-41], the minimal effective concentration was found to be 0.025 µM. For `Cc1ccc(-c2nc(C)c(NC(=O)OCc3ccc4c(c3)ncn4C)s2)c(C)c1` [Example 9-42], the minimal effective concentration was 0.00625 µM.

On to `Cc1nc(-c2ccccc2F)sc1NC(=O)OCc1ccc2c(c1)ncn2C` [Example 9-43], for which the minimal effective concentration amounted to 1 µM.

Consider `Cc1nc(-c2cccc(F)c2)sc1NC(=O)OCc1ccc2c(c1)ncn2C` [Example 9-44], for which the minimal effective concentration is 1 µM. For the compound `Cc1nc(-c2ccc(F)cc2)sc1NC(=O)OCc1ccc2c(c1)ncn2C` [Example 9-45], the minimal effective concentration came out at 1 µM.

Turning to `Cc1nc(-c2ccc(F)cc2F)sc1NC(=O)OCc1ccc2c(c1)ncn2C` [Example 9-46], the minimal effective concentration is 0.1 µM. For `Cc1nc(-c2ccc(F)cc2Cl)sc1NC(=O)OCc1ccc2c(c1)ncn2C` [Example 9-47] the value was 0.025 µM; for `Cc1cc(F)ccc1-c1nc(C)c(NC(=O)OCc2ccc3c(c2)ncn3C)s1` [Example 9-48], 0.00625 µM.

In the case of `Cc1cc(Cl)ccc1-c1nc(C)c(NC(=O)OCc2ccc3c(c2)ncn3C)s1` [Example 9-49], the minimal effective concentration stood at 0.00625 µM.

Regarding `Cc1nc(-c2ccc3c(c2)CCO3)sc1NC(=O)OCc1ccc2c(c1)ncn2C` [Example 9-50], the minimal effective concentration worked out at 10 µM. For `CCn1cnc2cc(COC(=O)Nc3sc(-c4ccccc4C)nc3C)ccc21` [Example 9-53] the value was 0.1 µM; for `CCn1cnc2cc(COC(=O)Nc3sc(-c4cccc(C)c4)nc3C)ccc21` [Example 9-54], 1 µM. For `CCn1cnc2cc(COC(=O)Nc3sc(-c4ccc(C)cc4)nc3C)ccc21` [Example 9-55] the value was 10 µM. Consider `CCc1ccccc1-c1nc(C)c(NC(=O)OCc2ccc3c(c2)ncn3CC)s1` [Example 9-56], for which the minimal effective concentration worked out at 0.025 µM. For `CCn1cnc2cc(COC(=O)Nc3sc(-c4ccc(F)cc4OC)nc3C)ccc21` [Example 9-58] the value was 0.00625 µM; for `CCn1cnc2cc(COC(=O)Nc3sc(-c4ccc(Cl)cc4OC)nc3C)ccc21` [Example 9-59], 0.00625 µM; for `CCn1cnc2cc(COC(=O)Nc3sc(-c4ccc(C)cc4OC)nc3C)ccc21` [Example 9-60], 0.00625 µM. For `CCn1cnc2cc(COC(=O)Nc3sc(-c4ccc(OC)cc4OC)nc3C)ccc21` [Example 9-61] the value was 0.00625 µM; for `CCn1cnc2cc(COC(=O)Nc3sc(-c4ccc(C)cc4C)nc3C)ccc21` [Example 9-62], 0.00625 µM; for `CCn1cnc2cc(COC(=O)Nc3sc(-c4ccc(F)cc4C)nc3C)ccc21` [Example 9-63], 0.00625 µM.
